Data on 1 compound can be found in patent US20120178124A1, “STEROL SIDE CHAIN-CLEAVING ENZYME PROTEIN AND USE THEREOF” (MITSUBISHI CHEMICAL CORPORATION, priority 2009, published 2012).

The subject of one data set is CYPSS204A. Nature of the data set: Conversion reaction of substrates by Escherichia coli expression strain BP215. The conditions noted are these: strain BP215, 28° C., 5 hours. It is filed as cell-based, Sphingomonas subterranea NBRC 16086. The protocol: The temperature conditions applied during the PCR were 95° C./5 min, 30 cycles of (98° C./30 sec, 60° C./30 sec, and 68° C./2 min), and 68° C./10 min.
Analysis conditions: Using Chromolith speed rod RP18e (50×4.6 mm) column, 50%→100% CH3CN gradient (0 to 3 min) and 100% CH3CN (3 to 8 min) were used as a mobile phase, and detection was carried out at a flow rate of 2 ml/min using CAD™ (Charged Aerosol Detection) and MS.

Data set [1] deals with CYP204A1. Put plainly: Conversion of 4-cholesten-3-one to progesterone by Bacillus megaterium cell mass expressing the CYP204A1 gene. Conditions: Bacillus megaterium pXYL204CB cell suspension, 30° C., 24 hours.
Data set [2] deals with CYP204A1. The conditions noted are these: strain BP172, same reaction as Example 6 (28° C., 5 hours). The protocol: Novosphingobium aromaticivorans (ATCC 700278) was inoculated into an L medium, and it was then cultured at 30° C. for 2 days. Thereafter, genomic DNA was extracted from the cell mass obtained in the same manner as that of Example 1. A fragment comprising a CYPSS204A1 gene and a ferredoxin gene located downstream thereof was amplified from the above-described genomic DNA by using a primer CYP-5F (SEQ ID NO: 9) and a primer CYP-6R (SEQ ID NO: 10) and also using La Taq polymerase (manufactured by Takara Bio INC.). The temperature conditions applied during this operation were 94° C./3 min, 30 cycles of (98° C./20 sec, 63° C./30 sec, and 68° C./2 min), and 72° C./5 min.
Escherichia coli BL21(DE3) was transformed with this plasmid, and the obtained cell strain was named as BP172.
The Escherichia coli expression strain BP215 was inoculated into 2 ml of an M9 mix medium (Na2HPO4: 0.68%, KH2PO4: 0.3%, NaCl: 0.05%, NH4C;: 0.01%, Casamino acid: 1%, D-Glucose: 0.4%, CaCl2: 0.1 mM, MgCl2: 1 mM, Thiamine: 0.002%, FeSO4: 0.1 mM, Carbenicillin: 0.005%), and it was then subjected to shaking culture at 30° C. for 17 hours, so as to obtain pre-culture solution. 0.25 ml of this pre-culture solution was inoculated into 25 ml of the main culture medium (Na2HPO4: 0.68%, KH2PO4: 0.3%, NaCl: 0.05%, NH4Cl: 0.01%, Casamino acid: 1%, CaCl2: 0.1 mM, MgCl2: 1 mM, Thiamine: 0.002%, FeSO4: 0.1 mM, Carbenicillin: 0.005%, Overnight Express™ solution: 7%, 5-Aminolevlic acid: 0.008%) using Overnight Express™ Autoinduction System (Novagen Cat. No. 71300-4), and it was then subjected to shaking culture at 25° C. for 24 hours. 5 ml of the obtained main culture solution was centrifuged (3500 rpm, 10 minutes) to obtain cell mass, and 1 ml of CV2 buffer (50 mM (pH) potassium phosphate buffer containing glycerol: 2%, carbenicillin: 0.005%, and isopropyl β-D-1-thiogalactopyranoside: 0.1 mM) was added to the obtained cell mass. Thereafter, 0.01 ml of the methanol solution of 1% 4-cholesten-3-one and 0.02 ml of an aqueous solution of 25% methyl-β-cyclodextrin were added to the mixed solution, and the obtained mixture was then shaken at 28° C. for 5 hours for the reaction. After completion of the reaction, 4 ml of methanol was added to the reaction solution, and they were then fully mixed. The obtained mixture was centrifuged, and the upper layer was then analyzed by HPLC.
As substrates, 4-cholesten-3-one, cholesterol, 7-dehydrocholesterol, ergosterol, 13-sitosterol, stigmasterol, campesterol, desmosterol, (20S)-20-hydroxycholest-4-en-3-one, (22R)-22-hydroxycholest-4-en-3-one, (20R,22R)-20,22-dihydroxycholest-4-en-3-one, and (20R,22S)-20,22-dihydroxycholest-4-en-3-one were used. Each substrate was subjected to the same reaction as that of Example 6, separately, and the generated product was then analyzed by HPLC.

Like-named read-outs stand apart in the source and are kept apart here.

For `CC(C)CCC[C@@H](C)[C@H]1CC[C@H]2[C@@H]3CCC4=CC(=O)CC[C@]4(C)[C@H]3CC[C@]12C` [4-cholesten-3-one], the “accumulated amount of side-chain cleavage product” value in the data set on CYPSS204A was 78.0 mg/L. Besides, in the data set with CYPSS204A, the added substrate remained result is given as “not detected”. For the same compound, the Conversion rate with CYPSS204A (to progesterone, pregnenolone or 7-dehydropregnenolone) worked out at 78%; in the data set on CYP204A1 [2], 84.0%; with CYP204A1 [2] (listed as 4Chol), 84%. Besides, the “conversion rate of 4-cholesten-3-one to progesterone” value in the data set on CYP204A1 [1] was 24.5%.
